From patent US10577362B2, “Substituted 2, 4-diamino-quinoline derivatives for use in the treatment of proliferative diseases” (GENOSCIENCE PHARMA, priority 2016, dated 2020)

How the values were obtained:
[1] = system: HCT-116 (colorectal carcinoma) cell line; assay: CellTiter-Glo luminescent cell viability assay, HCT-116; assay type: cell-based, human; conditions: Homo sapiens; for viability at 4 µM: HCT-116, compound at 4 μM; for viability at 4 µM / viability at 10 µM: 72 h; for viability at 10 µM: HCT-116, compound at 10 μM; for EC50: HCT-116 cell line, 72 h incubation, CellTiter-Glo, read-out: EC50, growth inhibition of HCT-116
In short: (§1)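 Luminescent signal, normalised to diluent-treated cultures, defines % viability; EC50 is the concentration lowering it to 50%. Cells had been exposed to compound for 72 h at 37 °C in medium with 10% FBS, at a constant H2O or DMSO percentage.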

[2] = system: HepG2 (hepatocellular carcinoma) cell line; assay: CellTiter-Glo luminescent cell viability assay, HepG2; assay type: cell-based, human; conditions: Homo sapiens; for viability at 4 µM / viability at 10 µM: HepG2, HepG, 72 h; for viability at 4 µM: compound at 4 μM; for viability at 10 µM: compound at 10 μM; for EC50: HepG2 cell line, 72 h incubation, CellTiter-Glo, read-out: EC50, growth inhibition of HepG2
In short: (§2)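 72 h compound exposure, 37 °C, 5% CO2, 10% FBS medium; ATP luminescence read after 30 min RT equilibration. Viability as % of H2O/DMSO diluent control; EC50 = dose giving 50% of control signal. Duplicate points minimum.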

[3] = system: Huh7 (hepatocellular carcinoma) cell line; assay: CellTiter-Glo luminescent cell viability assay, Huh7; assay type: cell-based, human; conditions: Homo sapiens, Huh-7; for viability at 4 µM: Huh7, compound at 4 μM; for viability at 4 µM / viability at 10 µM: 72 h; for viability at 10 µM: Huh7, compound at 10 μM; for EC50: Huh7 cell line, 72 h incubation, CellTiter-Glo, read-out: EC50, growth inhibition of Huh7
In short: as §2

[4] = system: MOLM-14 (acute myeloid leukemia) cell line; assay: CellTiter-Glo luminescent cell viability assay, MOLM-14; assay type: cell-based, human; conditions: Homo sapiens; for viability at 4 µM: MOLM-14, compound at 4 μM; for viability at 4 µM / viability at 10 µM: 72 h; for viability at 10 µM: MOLM-14, compound at 10 μM; for EC50: MOLM-14 cell line, 72 h incubation, CellTiter-Glo, read-out: EC50, growth inhibition of MOLM-14
In short: as §2

[5] = system: A375 (malignant melanoma) cell line; assay: CellTiter-Glo luminescent cell viability assay, A375; assay type: cell-based, human; conditions: Homo sapiens, A-375; for viability at 4 µM: A375, compound at 4 μM; for viability at 4 µM / viability at 10 µM: 72 h; for viability at 10 µM: A375, compound at 10 μM; for EC50: A375 cell line, 72 h incubation, CellTiter-Glo, read-out: EC50, growth inhibition of A375
In short: as §1

[6] = system: 786-O (renal adenocarcinoma) cell line; assay: CellTiter-Glo luminescent cell viability assay, 786-O; assay type: cell-based, human; conditions: Homo sapiens, 786-0; for EC50: 786-O cell line, 72 h incubation, CellTiter-Glo, read-out: EC50, growth inhibition of 786-O; for viability at 4 µM / viability at 10 µM: 786-O, 72 h; for viability at 4 µM: compound at 4 μM; for viability at 10 µM: compound at 10 μM
In short: as §1

[7] = system: PANC-1 (prancreatic carcinoma) cell line; assay: CellTiter-Glo luminescent cell viability assay, PANC-1; assay type: cell-based; conditions: Homo sapiens; for viability at 4 µM: PANC-1, 4 μM; for viability at 4 µM / viability at 10 µM: 72 h, % of signal of diluent-treated cultures; for viability at 10 µM: PANC-1, 10 μM; for EC50: PANC-1 cell line, 72 h incubation, CellTiter-Glo, read-out: EC50 (growth inhibition assay of PANC-1 cell line)
In short: as §2

Row | Structure (SMILES) | viability at 4 µM [1] [%] | viability at 10 µM [1] [%] | EC50 [1] [nM] | viability at 4 µM [2] [%] | viability at 10 µM [2] [%] | EC50 [2] [µM] | viability at 4 µM [3] [%] | viability at 10 µM [3] [%] | EC50 [3] [µM] | viability at 4 µM [4] [%] | viability at 10 µM [4] [%] | EC50 [4] [µM] | viability at 4 µM [5] [%] | viability at 10 µM [5] [%] | EC50 [5] [nM] | EC50 [6] [µM] | viability at 4 µM [6] [%] | viability at 10 µM [6] [%] | viability at 4 µM [7] [%] | viability at 10 µM [7] [%] | other results
1 | N#Cc1c(NCc2ccc(Cl)cc2)nc2ccccc2c1N1CCCC(N)C1 (stereo not shown) [Compound 3156CN, 2-(4-chlorobenzylamino)-3-cyano-4-(3-aminopiperidin-1-yl)quinoline] | 52 | 0.5 | 500 to 5000 | 32.6 | 0.5 | 0.5 to 5 | 83 | 0.6 | 0.5 to 5 | 92.8 | 0.6 | 5 to 10 | 10 | 0.4 | 500 to 5000 | 0.5 to 5 | 77.8 | 0.6 | 102 | 0.9 | EC50 [7]: 5 to 10 µM
2 | CNC1CCCN(c2c(C#N)c(NCc3ccc(Cl)cc3)nc3ccccc23)C1 (stereo not shown) [Compound 3158CN, 2-(4-chlorobenzylamino)-3-cyano-4-[3-(methylamino)piperidin-1-yl]quinoline] | 74.2 | 0.4 | 500 to 5000 | 84.6 | 0.4 | 0.5 to 5 | 86.4 | 0.5 | 5 to 10 | 91.5 | 0.6 | 5 to 10 | 70.9 | 0.3 | 500 to 5000 | 5 to 10 | 88.4 | 0.5 | 107 | 53.1 | EC50 [7]: 5 to 10 µM
3 | CC(C)NC1CCCN(c2c(C#N)c(NCc3ccc(Cl)cc3)nc3ccccc23)C1 (stereo not shown) [Compound 3160CN, 2-(4-chlorobenzylamino)-3-cyano-4-[3-(isopropylamino)piperidin-1-yl]quinoline] | 57.7 | 0.4 | 500 to 5000 | 62.1 | 0.5 | 0.5 to 5 | 80.8 | 0.5 | 5 to 10 | 88.7 | 0.6 | 5 to 10 | 18.2 | 0.4 | 500 to 5000 | 5 to 10 | 65.2 | 0.5 | 96.1 | 1.2 | EC50 [7]: 5 to 10 µM
4 | CN1CCC(NC2CCCN(c3c(C#N)c(NCc4ccc(Cl)cc4)nc4ccccc34)C2)CC1 (stereo not shown) [Compound 3162CN, 2-(4-chlorobenzylamino)-3-cyano-4-{3-[(1-methylpiperidin-4-yl)amino]piperidin-1-yl}quinoline] | 0.3 | 0.2 | 500 to 5000 | 0.3 | 0.2 | 0.5 to 5 | 0.5 | 0.2 | 0.5 to 5 | 0.5 | 0.3 | 0.5 to 5 | 0.4 | 0.2 | 500 to 5000 | 0.5 to 5 | 0.5 | 0.3 | 51.6 | 0.4 | 
5 | CN(C)C1CCCN(c2c(C#N)c(NCc3ccc(Cl)cc3)nc3ccccc23)C1 (stereo not shown) [Compound 3164CN, 2-(4-chlorobenzylamino)-3-cyano-4-[3-(dimethylamino)piperidin-1-yl]quinoline] | 91.2 | 38.4 |  | 101 | 52.9 |  | 91.9 | 51.1 |  | 113 | 74.6 |  | 89.2 | 39.3 |  |  | 97.1 | 64.1 | 98.7 | 69.6 | 
6 | CN1CCN(C2CCCN(c3c(C#N)c(NCc4ccc(Cl)cc4)nc4ccccc34)C2)CC1 (stereo not shown) [Compound 3168CN, 2-(4-chlorobenzylamino)-3-cyano-4-[3-(4-methylpiperazin-1-yl)piperidin-1-yl]quinoline] | 40.7 | 0.5 | 500 to 5000 | 87.8 | 0.6 | 5 to 10 | 80.1 | 0.7 | 0.5 to 5 | 105 | 0.8 | 5 to 10 | 61 | 0.8 | 500 to 5000 | 0.5 to 5 | 75.4 | 0.6 | 100 | 22.3 | EC50 [7]: 5 to 10 µM
7 | N#Cc1c(NCc2ccc(Cl)cc2)nc2ccccc2c1N1CCC(N)CC1 [Compound 3170CN, 2-(4-chlorobenzylamino)-3-cyano-4-(4-aminopiperidin-1-yl)quinoline] | 0.7 | 0.2 | 500 to 5000 | 0.6 | 0.3 | 0.5 to 5 | 79.4 | 0.4 | 0.5 to 5 | 84.2 | 0.4 | 0.5 to 5 | 0.5 | 0.3 | 500 to 5000 | 0.5 to 5 | 36.5 | 0.4 | 89.6 | 0.6 | EC50 [7]: 5 to 10 µM
8 | CNC1CCN(c2c(C#N)c(NCc3ccc(Cl)cc3)nc3ccccc23)CC1 [Compound 3172CN, 2-(4-chlorobenzylamino)-3-cyano-4-[4-(methylamino)piperidin-1-yl]quinoline] | 0.2 | 0.1 | 500 to 5000 | 0.5 | 0.4 | 0.5 to 5 | 30.7 | 0.4 | 0.5 to 5 | 0.5 | 0.4 | 0.5 to 5 | 0.4 | 0.3 | 500 to 5000 | 0.5 to 5 | 0.5 | 0.3 | 56.4 | 0.5 | EC50 [7]: 5 to 10 µM
9 | CC(C)NC1CCN(c2c(C#N)c(NCc3ccc(Cl)cc3)nc3ccccc23)CC1 [Compound 3174CN, 2-(4-chlorobenzylamino)-3-cyano-4-[4-(iso-propylamino)piperidin-1-yl]quinoline] | 0.3 | 0.1 | 500 to 5000 | 0.5 | 0.2 | 0.5 to 5 | 62.9 | 0.3 | 0.5 to 5 | 24.4 | 0.3 | 0.5 to 5 | 0.3 | 0.2 | 500 to 5000 | 0.5 to 5 | 3.6 | 0.2 | 84.8 | 0.6 | EC50 [7]: 5 to 10 µM
10 | N#Cc1c(NCc2ccc(Cl)cc2)nc2ccccc2c1N1CCC(NC2CCCC2)CC1 [Compound 3178CN, 2-(4-chlorobenzylamino)-3-cyano-4-[4-(cyclopentylamino)piperidin-1-yl]quinoline] | 0.3 | 0.4 | 500 to 5000 | 6 | 0.5 | 0.5 to 5 | 58.8 | 0.6 | 0.5 to 5 | 90.4 | 0.7 | 0.5 to 5 | 0.4 | 0.5 | 500 to 5000 | 0.5 to 5 | 1.3 | 0.5 | 85.8 | 0.8 | EC50 [7]: 5 to 10 µM
